Consider one compound from US20150216870A1, “Combination of PI3K Inhibitor and C-Met Inhibitor” (Novartis AG, priority 2012, published 2015).

SMILES strings stand for the structures.

Test [1] deals with EBC-1. Kind of test: Cell viability (CellTiterGlo) combination dose matrix in EBC-1. The test is classed as cell-based, human. Particulars: combination with c-Met inhibitor, 72 h, excluding highest concentration, 0 no inhibition, 1 = 100% inhibition/stasis, 2 = cell death. For orientation: In ATP-based viability assays light output follows the ATP content of the culture.
Protocol: (§1) Compound stocks of both compounds are individually prepared in DMSO. Compounds are serially diluted using a Tecan dispenser to cover a ˜1000× range of concentrations. […] Both single agent and combinations are tested at multiple concentrations, along with controls and one self-cross.
(§2) The cell lines used in this study are purchased from American Type Cell Collection, including human non small cell lung cancer cell lines EBC-1 (which bears c-Met amplification), NCI-H1993 (which bears c-MET amplified), NCI-H1648 (which bears c-Met amplification), NCI-H1573 (which bears c-Met amplification and KRAS mutation) and HCC2935 (EGFR mutation). All cell lines are maintained in their respective culture medium as specified by the provider.
(§3) For the assessment of combination effects, cells are seeded into 384-well plates at 500 cells/well and incubated overnight. […]
(§4) Effects of single agents as well as their combination on cell viability is assessed after 72 hours of incubation at 37° C./5% CO2 by quantification of cellular ATP levels (CellTiterGlo, Promega) using 25 μL reagent/well and n=2 replicate plates per condition. The number/viability of cells at time of compound addition is likewise assessed and used to estimate the population doubling time of a cell line.
(§5) For untreated and treated levels U and T, inhibition is calculated using the formula I=1−T/U, which ranges from 0% to 100% for complete inhibition. […]
(§6) The Loewe expectation [Loewe S., Ergebn Physiol 27: 47-187 (1928)) is calculated at each dose pair CX,Y by finding the inhibition ILoewe such that (CX/ICX)+(CY/ICY)=1, and ICX,Y are the effective concentrations at ILoewe for the fitted single agent curves, using numerical optimization [Berenbaum M C, J Theor Biol 114: 413-431 (1985)]. The “synergy score” S is calculated by averaging the difference between Idata and ILoewe across all the tested combination dose points, excluding the highest concentration point in the dose matrix, which is most likely to be dominated by drug off-target effects. […]
For test [2], the system named is NCI-H1993. Kind of test: Cell viability (CellTiterGlo) combination dose matrix in NCI-H1993. In kind it is cell-based, human. Particulars: combination with c-Met inhibitor, 72 h, excluding highest concentration.
Protocol: as §1, §2, §3, §4, §5, §6
The subject of test [3] is NCI-H1648. Kind of test: Cell viability (CellTiterGlo) combination dose matrix in NCI-H1648. The test is classed as cell-based, human. The settings on record: combination with c-Met inhibitor, 72 h, excluding highest concentration.
Protocol: as §1, §2, §3, §4, §5, §6
Test [4] concerns NCI-H1573. Kind of test: Cell viability (CellTiterGlo) combination dose matrix in NCI-H1573. In kind it is cell-based, human. The settings on record: combination with c-Met inhibitor, 72 h, excluding highest concentration.
Protocol: as §1, §2, §3, §4, §5, §6
For test [5], the system named is HCC2935. Kind of test: Cell viability (CellTiterGlo) combination dose matrix in HCC2935. Particulars: combination with c-Met inhibitor, 72 h, excluding highest concentration. In kind it is cell-based, human.
Protocol: as §1, §2, §3, §4, §5, §6
Test [6] deals with U-87 MG. Kind of test: CellTiter-Glo cell viability dose matrix in U-87 MG glioblastoma cells. The test is classed as cell-based, human. The settings on record: U87 MG (PTEN mutant, HGF expressing).
Protocol: (§7) The PI3K inhibitor COMPOUND C and the c-MET receptor tyrosine kinase inhibitor 2-fluoro-N-methyl-4-[7-quinolin-6-yl-methyl)-imidazo[1,2-b][1,2,4]triazin-2yl]benzamide are evaluated in combination in glioblastoma tumor models. COMPOUND C (10 mM) and 2-fluoro-N-methyl-4-[7-quinolin-6-yl-methyl)-imidazo[1,2-b][1,2,4]triazin-2yl]benzamide (10 mM) are dissolved in DMSO, and are stored in aliquots at −20° C.
(§8) Human Glioblastoma cell lines, U-87 MG (PTEN mutant and HGF expressing line), H4 (PTEN mutant and HGF expressing line), A172 (PTEN mutant line with low HGF expression level) and LN-229 (PTEN wildtype and HGF low) are purchased from American Type Cell Collection and are maintained in a humidified incubator at 37° C. in 5% CO2 in recommended media. All four cell lines express detected MET at the mRNA level.
(§9) The cells are passaged twice a week and the medium is changed every 2 to 3 days. […]
(§10) Cell viability is determined by measuring cellular ATP content using the CellTiter-Glo® (CTG) luminescent cell viability assay (Promega). […] An equal volume of the CTG reagents is added to each well at the end of the compound treatment and luminescence is recorded on an Envision plate reader (Perkin Elmer). Reduced and enhanced luminescent signal values (responses) are calculated relative to untreated (control) cells. […]
Test [7] relates to H4. Kind of test: CellTiter-Glo cell viability dose matrix in H4 glioblastoma cells. In kind it is cell-based, human. Particulars: H4 (PTEN mutant, HGF expressing).
Protocol: as §7, §8, §9, §10
The subject of test [8] is A172. Kind of test: CellTiter-Glo cell viability dose matrix in A172 glioblastoma cells. In kind it is cell-based, human. Particulars: A172 (PTEN mutant, low HGF).
Protocol: as §7, §8, §9, §10
The test system of test [9] is LN-229. Kind of test: CellTiter-Glo cell viability dose matrix in LN-229 glioblastoma cells. In kind it is cell-based, human. Particulars: LN229 (PTEN wildtype, HGF low).
Protocol: as §7, §8, §9, §10
Test [10] concerns U-87 MG human glioblastoma xenograft. Kind of test: U-87 MG xenograft tumor growth inhibition and tumor growth delay. The settings on record: for T/C or T/T0: D13. The test is classed as in vivo, nude mice. How it is done:
In this experiment, the U-87 MG human glioblastoma xenograft model is used to assess the anti-tumor efficacy of the PI3K inhibitor COMPOUND C and c-Met inhibitor 2-fluoro-N-methyl-4-[7-quinolin-6-yl-methyl)-imidazo[1,2-b][1,2,4]triazin-2yl]benzamide as single agents or in combination. U-87 MG tumor cells obtained from the National Cancer Institute are reported to be homozygous for likely oncogenic variants of CDKN2A, CDKN2C, CDKN2a, and PTEN; no mutations are detected in MET, PIK3CA, or 58 other genes that are frequently altered in neoplastic cells; and HGF expressing.
Mice are treated daily for 21 days with 17.7 and 35.3 mg/kg of the c-Met inhibitor and 32.7 mg/kg COMPOUND C monotherapies, and with the c-Met inhibitor/COMPOUND C dual therapy at 17.7:32.7. An c-Met inhibitor/COMPOUND C combination at the 58.8:5.4 mg/kg dose ratio was included in the study. The control mice received both vehicles, and a standard preclinical temozolomide regimen monitored tumor model performance. The oral treatments began on Day 1 (D1) in nude mice with established subcutaneous tumors. Each animal was euthanized when its tumor reached the predetermined 2000 mm3 endpoint volume, or on D60, whichever came first. The study was terminated on D51. […] Overall efficacy was determined from the times required for tumors to progress to the volume endpoint, and from D51 survival and regression rates. This report describes the methods and results of the U87MG-e326 tumor growth delay experiment.
The animals are fed ad libitum water (reverse osmosis, 1 ppm CI) and NIH 31 Modified and Irradiated Lab Diet® consisting of 18.0% crude protein, 5.0% crude fat, and 5.0% crude fiber. The mice are housed on irradiated Enrich-O'cobs™ Laboratory Animal Bedding in static microisolators on a 12-hour light cycle at 20-22° C. (68-72° F.) and 40-60% humidity.
The U-87 MG tumor line is obtained from the American Type Culture Collection and maintained by serial engraftment in nude mice. A tumor fragment (1 mm^3) is implanted subcutaneously into the right flank of each test mouse. Tumors are calipered in two dimensions to monitor growth as their mean volume approached the desired 100-150 mm^3 range. Tumor size, in mm^3, was calculated from: Tumor Volume=(width^2×length)/2, where width and length (in mm) are measurements of the tumor. Tumor weight can be estimated with the assumption that 1 mg is equivalent to 1 mm^3 of tumor volume. Fourteen days after tumor cell implantation, on D1 of the study, mice with individual tumor volumes of 63-196 mm^3 are sorted into seven groups, with group mean tumor volumes of 122-127 mm^3.
The c-Met inhibitor 2-fluoro-N-methyl-4-[7-quinolin-6-yl-methyl)-imidazo[1,2-b][1,2,4]triazin-2yl]benzamide (di-HCl salt, 84.98% free base) is stored at 4° C. and is added to deionized water at 2× the final concentration and sonicated until dissolved. An equal volume of 0.5% methylcellulose and 0.1% Tween® 80 in deionized water is added to provide a 5.884 mg/mL dosing solution in 0.25% methylcellulose and 0.05% Tween® 80 in deionized water (Vehicle 1). Portions of this solution are diluted with Vehicle 1 to provide 3.53 and 1.765 mg/mL dosing solutions.
COMPOUND C (HCl salt, 91.85% free base) is stored at −20° C. and is added to 1% Tween® 80 in deionized water and sonicated to obtain a uniform suspension at 2× the final concentration. […] The 0.544 mg/mL dosing suspension is obtained by diluting a portion of the first suspension with Vehicle 2.

Where [11] appears, read: COMPOUND C 32.7 mg/kg (30 mg/kg free base) p.o. qd x21.

Consider `Nc1cc(C(F)(F)F)c(-c2cc(N3CCOCC3)nc(N3CCOCC3)n2)cn1` [COMPOUND C, 5-(2,6-di-morpholin-4-yl-pyrimidin-4-yl)-4-trifluoromethyl-pyridin-2-ylamine], for which the “MaxGI (GImax, combination effectiveness)” value in test [1] is recorded as 1.83; in test [2], 1.67; in [3] it was 1.78; in [4], 1.54; in test [5], 1.37. In addition, the “anti-proliferative activity (single agent)” value in test [6] was “concentration dependent anti-proliferative activity”; in [7] it was “concentration dependent anti-proliferative activity”; in [8], “concentration dependent anti-proliferative activity”; in test [9], “less active”. The “increase of median TTE” value in test [10] (COMPOUND C 30 mg/kg free base p.o. qd x21) is given as 9.3 days. Further, in test [10] (setting [11]), the “% TGD” value came out at 79%. In addition, the “T/C or T/T0” value is on record as 31% in test [10] (setting [11]) and 31% in test [10] (COMPOUND C 32.7 mg/kg (30 mg/kg free base) p.o. qd x21, listed as CMPD. C). The “Median TTE” value in test [10] (COMPOUND C 32.7 mg/kg (30 mg/kg free base) p.o. qd x21, endpoint 2000 mm3) was 21.0 days. Moreover, the Regress. in [10] (COMPOUND C 32.7 mg/kg p.o. qd x21, number of animals) was 0.
